The term ED50 denotes the midpoint of the dose-response relation.

Active and inactive are the calls of the source. The calls are words filed in the database; no cut-off is given here.

The text below walks through data of ChEMBL document CHEMBL1121574, “Third Smissman Award address: reminiscences and musings of a classical medicinal chemist” (J Med Chem, 1980).

Assay [1] has as its system Monkey. The assay can be described thus: Physical dependence capacity at abstinence suppressant dose; Intermediate. The class given is functional, organism-based. As to conditions: Cercopithecidae.
A short description of assay [2]: Abstinence suppressant dose of the compound. In kind it is functional.
Assay [3] deals with Monkey. The assay can be described thus: Physical dependence capacity at abstinence suppressant dose; Low. In kind it is functional, organism-based. The conditions noted are these: Cercopithecidae.
The subject of assay [4] is Monkey. The assay can be described thus: Physical dependence capacity at abstinence suppressant dose; None. In kind it is functional, organism-based. The conditions noted are these: Cercopithecidae.
Assay [5] in a line: Abstinence suppressant dose of the compound; range 0.5-12 mg/kg, no suppression. The class given is functional.
Assay [6] in a line: Abstinence suppressant dose of the compound; range 2-12mg/kg, no suppression. The class given is functional.
Assay [7] in a line: Abstinence suppressant dose of the compound; range 2-60 mg/kg, no suppression. The class given is functional.
Assay [8] in a line: Abstinence suppressant dose of the compound; range 2-60 no suppression. The class given is functional.
The nature of assay [9]: Abstinence suppressant dose of the compound; range 1-16 mg/kg, no suppression. The class given is functional.
Assay [10] in a line: Abstinence suppressant dose of the compound; range 3-30 mg/kg, no suppression. In kind it is functional.
For assay [11], the species on record is Mus musculus. Description: Analgesic activity in mouse. In kind it is functional.
Assay [12] has as its system Monkey. Description: Physical dependence capacity at abstinence suppressant dose; High. The class given is functional, organism-based. As to conditions: Cercopithecidae.
The test system of assay [13] is Monkey. The assay can be described thus: Physical dependence capacity at abstinence suppressant dose; low. The class given is functional, organism-based. The conditions noted are these: Cercopithecidae.
For assay [14], the system named is Monkey. Description: Physical dependence capacity at abstinence suppressant dose; Very low. As to conditions: Cercopithecidae. The class given is functional, organism-based.
The subject of assay [15] is Monkey. The assay can be described thus: Physical dependence capacity at abstinence suppressant dose; No. The conditions noted are these: Cercopithecidae. In kind it is functional, organism-based.
For assay [16], the species on record is Mus musculus. Description: The compound was tested for its analgesic activity in mouse; Inactive. In kind it is functional, organism-based.
Assay [17] relates to Monkey. Description: Physical dependence capacity at abstinence suppressant dose; high. The class given is functional, organism-based. As to conditions: Cercopithecidae.

For the compound `CC[C@]12CCN(C)C(Cc3ccc(O)cc31)C2C` (some centres undefined), in the assay with Monkey [1], the Physical dependence capacity entry is reported as “Intermediate”. The compound further returned a Dose in assay [2] of 1 mg/kg.

As to `CC1C2Cc3ccc(O)cc3[C@]1(C)CCN2C` (some centres undefined), the Physical dependence capacity entry in the assay on Monkey [3] is recorded as “Low”. Further, the Dose in assay [2] was more than 18 mg/kg.

For `CCC1C2Cc3ccc(O)cc3[C@]1(CC)CCN2C` (some centres undefined), the Physical dependence capacity entry in the assay with Monkey [4] was “inactive”. Further, in assay [5], the Dose was found to be 0.5 mg/kg.

On to `CC[C@H]1C2Cc3ccc(O)cc3[C@]1(C)CCN2C`, for which the Physical dependence capacity result in the assay with Monkey [4] was “inactive”. In [6], this compound came in with a Dose of 2 mg/kg.

In [7], `CN1CC[C@]2(C)CC1Cc1ccc(O)cc12` [listing 1 of 2 here] displayed a Dose of 2 mg/kg.

For the compound `CC[C@]12CCN(C)C(Cc3ccc(O)cc31)[C@@H]2C`, the Physical dependence capacity entry in the assay with Monkey [3] was “Low”. This compound came in with a Dose in assay [2] of more than 40 mg/kg.

Turning to `C[C@H]1C2Cc3ccc(O)cc3[C@]1(C)CCN2C` [listing 1 of 2 here], in assay [2], the Dose was 24 mg/kg.

Take `CC[C@H]1C2Cc3ccc(O)cc3[C@]1(CC)CCN2C` [listing 1 of 2 here]: the Dose in assay [8] was found to be 2 mg/kg.

`CC[C@]12CCN(C)C(Cc3ccc(O)cc31)C2` [listing 1 of 2 here] gave a Dose in assay [9] of 1 mg/kg.

Consider `CCC[C@]12CCN(C)C(Cc3ccc(O)cc31)C2`, for which the Physical dependence capacity entry in the assay on Monkey [4] is “inactive”. This compound displayed a Dose in assay [10] of 3 mg/kg.

On to `CC[C@H]1C2Cc3ccc(O)cc3[C@]1(CC)CCN2C` [listing 2 of 2 here], for which the Physical dependence capacity entry in the assay on Monkey [4] is “inactive”.

Take `CC[C@]12CCN(C)C(Cc3ccc(O)cc31)C2` [listing 2 of 2 here]: the Physical dependence capacity result in the assay on Monkey [3] was “Low”.

Consider `CN1CC[C@]2(C)CC1Cc1ccc(O)cc12` [listing 2 of 2 here], for which the Physical dependence capacity result with Monkey [4] is “inactive”.

On to `C[C@H]1C2Cc3ccc(O)cc3[C@]1(C)CCN2C` [listing 2 of 2 here], for which the Physical dependence capacity result in the assay with Monkey [3] is on record as “Low”.

Turning to `CN1CC[C@]2(C)CC1Cc1ccc(O)cc12` (single isomer, unassigned; (+)) [listing 1 of 2 here], in the assay filed under Mus musculus [11], the ED50 was 22.9 mg/kg.

As for `CC[C@H]1C2Cc3ccc(O)cc3[C@]1(CC)CCN2C` (single isomer, unassigned; (+)) [listing 1 of 2 here], the ED50 in the assay filed under Mus musculus [11] came out at 7.5 mg/kg.

In turn, `CC[C@]12CCN(C)C(Cc3ccc(O)cc31)C2` (single isomer, unassigned; (+)) [listing 1 of 2 here] had a 50% effective dose (ED50) in the assay listed under Mus musculus [11] of 21.8 mg/kg.

As to `CCC[C@]12CCN(C)C(Cc3ccc(O)cc31)[C@@H]2C` (single isomer, unassigned; (+)) [listing 1 of 2 here], the 50% effective dose (ED50) in the assay filed under Mus musculus [11] came to 12.3 mg/kg.

For `CCC[C@]12CCN(C)C(Cc3ccc(O)cc31)[C@@H]2C` (single isomer, unassigned; (+)) [listing 2 of 2 here], the Physical dependence capacity entry in the assay with Monkey [12] is reported as “High”.

`CC[C@H]1C2Cc3ccc(O)cc3[C@]1(CC)CCN2C` (single isomer, unassigned; (+)) [listing 2 of 2 here]: the Physical dependence capacity entry in the assay on Monkey [1] is “Intermediate”.

In the case of `CC[C@]12CCN(C)C(Cc3ccc(O)cc31)C2` (single isomer, unassigned; (+)) [listing 2 of 2 here], the Physical dependence capacity result in the assay on Monkey [13] is “Low”.

On to `CN1CC[C@]2(C)CC1Cc1ccc(O)cc12` (single isomer, unassigned; (+)) [listing 2 of 2 here], for which, in the assay with Monkey [14], the Physical dependence capacity entry is given as “Very low”.

For the compound `C[C@H]1C2Cc3ccc(O)cc3[C@]1(C)CCN2C` (single isomer, unassigned; (+)), in the assay with Monkey [15], the Physical dependence capacity entry is “No dependance”. In addition, the ED50 entry in the assay filed under Mus musculus [16] was “inactive”.

In the assay listed under Mus musculus [11], `CN1CC[C@]2(C)CC1Cc1ccc(O)cc12` (single isomer, unassigned; (-)) [listing 1 of 2 here] had an ED50 of 1.8 mg/kg.

Consider `C[C@H]1C2Cc3ccc(O)cc3[C@]1(C)CCN2C` (single isomer, unassigned; (-)) [listing 1 of 2 here], for which the ED50 in the assay filed under Mus musculus [11] (Mus musculus, read-out: ED50) is 0.6 mg/kg.

Regarding `CC[C@H]1C2Cc3ccc(O)cc3[C@]1(CC)CCN2C` (single isomer, unassigned; (-)) [listing 1 of 2 here], the ED50 in the assay listed under Mus musculus [11] stood at 1.2 mg/kg.

Consider `CC[C@]12CCN(C)C(Cc3ccc(O)cc31)C2` (single isomer, unassigned; (-)) [listing 1 of 2 here], for which, in the assay listed under Mus musculus [11], the ED50 turned out to be 0.6 mg/kg.

`CCC[C@]12CCN(C)C(Cc3ccc(O)cc31)[C@@H]2C` (single isomer, unassigned; (-)) [listing 1 of 2 here]: the median effective dose (ED50) in the assay filed under Mus musculus [11] worked out at 0.8 mg/kg.

As to `CCC[C@]12CCN(C)C(Cc3ccc(O)cc31)[C@@H]2C` (single isomer, unassigned; (-)) [listing 2 of 2 here], the Physical dependence capacity result in the assay with Monkey [15] was “No dependance”.

With `CC[C@H]1C2Cc3ccc(O)cc3[C@]1(CC)CCN2C` (single isomer, unassigned; (-)) [listing 2 of 2 here], the Physical dependence capacity result in the assay with Monkey [15] was “No dependance”.

As to `CC[C@]12CCN(C)C(Cc3ccc(O)cc31)C2` (single isomer, unassigned; (-)) [listing 2 of 2 here], in the assay with Monkey [15], the Physical dependence capacity entry is “No dependance”.

Take `CN1CC[C@]2(C)CC1Cc1ccc(O)cc12` (single isomer, unassigned; (-)) [listing 2 of 2 here]: in the assay with Monkey [3], the Physical dependence capacity entry is reported as “Low”.

On to `C[C@H]1C2Cc3ccc(O)cc3[C@]1(C)CCN2C` (single isomer, unassigned; (-)) [listing 2 of 2 here], for which, in the assay on Monkey [15], the Physical dependence capacity result is “No dependance”.

Take `COc1ccc2c3c1O[C@H]1[C@@H](O)C=C[C@H]4[C@@H](C2)N(C)CC[C@@]341` [CODEINE]: the Physical dependence capacity result in the assay with Monkey [1] was “Partially active”. Besides, the ED50 in the assay filed under Mus musculus [11] (Mus musculus, read-out: ED50) was determined as 7.5 mg/kg.

As to `CN1CC[C@]23c4c5ccc(O)c4O[C@H]2[C@@H](O)C=C[C@H]3[C@H]1C5` [MORPHINE], the Physical dependence capacity result in the assay on Monkey [17] was “Active”. Also, the ED50 in the assay filed under Mus musculus [11] (Mus musculus, read-out: ED50) came out at 1.2 mg/kg.
